These results are taken from ChEMBL document CHEMBL1201862, “PubChem BioAssay data set” (2004).

Structures are written as SMILES.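 Cells were grown in 96-well plates and exposed to each compound for 48 hours at five concentrations; endpoints were interpolated linearly between bracketing concentrations, or set to the highest concentration if not reached. The concentration for 50% growth inhibition is given as GI50.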 The source made the active and inactive calls. Rule as the data show it: active = GI50 up to about 1.1 µM and inactive = higher. Some results are limits rather than exact numbers.

Some test systems named below: DU-145; UACC-257; MDA-N; UACC-62; NCI-H23; Hs-578T; COLO 205; SNB-75; PC-3; NCI/ADR-RES; MOLT-4; HCT-15; SF-295; OVCAR-4; OVCAR-5; HT-29; HOP-92; MDA-MB-231; K562; HCC 2998.
Common to all, as to assay: NCI tumour cell line growth inhibition, 48 h

As to `C[C@]12O[C@@]3(C)O[C@@]3(C)[C@]3(C)O[C@]3(C)[C@@]1(C)O2`, the GI50 in the test with DU-145, in the test with UACC-257, in the test on MDA-N, in the test with UACC-62, with NCI-H23 and in the test on Hs-578T was > 100 µM (inactive) in each case. In addition, the GI50 is > 100 µM (inactive) in the test on COLO 205; 0.598 µM (active) in the test on SNB-75; > 100 µM (inactive) in the test with PC-3; > 100 µM (inactive) with NCI/ADR-RES; > 100 µM (inactive) with MOLT-4; more than 100 µM in the test on HCT-15. For the same molecule, the GI50 in the test with SF-295, in the test on OVCAR-4, in the test on OVCAR-5, with HT-29, in the test with HOP-92 and in the test with MDA-MB-231 was > 100 µM (inactive) in each case. Besides, the GI50 in the test with K562 is > 100 µM (inactive).

For the molecule `COC(=O)CCc1ccc2c(c1)C(=O)CC2`, the GI50 with DU-145, in the test on HCC 2998, in the test with UACC-257, with MDA-N, in the test with NCI-H23 and in the test with Hs-578T was > 100 µM (inactive) in each case. The GI50 in the test with SNB-75 is 29.7 µM (inactive); in the test with PC-3, > 100 µM (inactive); with NCI/ADR-RES, > 100 µM (inactive); in the test on MOLT-4, > 100 µM (inactive); with HCT-15, more than 100 µM; with SF-295, > 100 µM (inactive). Further, the GI50 in the test with OVCAR-4, in the test on OVCAR-5, in the test on HT-29, in the test on HOP-92, in the test on MDA-MB-231 and with K562 was > 100 µM (inactive) each time.

Consider `CCSc1n/c(=C\c2ccc(N(C)C)cc2)c2nnnn12`, for which the GI50 with DU-145, with HCC 2998, in the test with UACC-257, with MDA-N, with UACC-62 and in the test on NCI-H23 was > 100 µM (inactive) throughout. The GI50 in the test on Hs-578T, in the test with COLO 205, in the test on SNB-75, with PC-3, in the test on NCI/ADR-RES and in the test on MOLT-4 was > 100 µM (inactive) throughout. The GI50 in the test on HCT-15 is more than 100 µM; with SF-295, 99.3 µM (inactive); with OVCAR-4, > 100 µM (inactive); in the test on OVCAR-5, > 100 µM (inactive); with HT-29, > 100 µM (inactive); with HOP-92 it was > 100 µM (inactive). Further, in the test on MDA-MB-231, the GI50 was > 100 µM (inactive).

Regarding `COc1ccc(OC)c(-c2cc(C(=O)O)c3cc4ccccc4cc3n2)c1`, the GI50 in the test with DU-145, with UACC-257, in the test with MDA-N, with UACC-62, with NCI-H23 and in the test with Hs-578T was > 100 µM (inactive) in each case. In addition, the GI50 in the test on COLO 205 was > 100 µM (inactive); in the test on SNB-75, > 100 µM (inactive); in the test on PC-3, > 100 µM (inactive); with NCI/ADR-RES, > 100 µM (inactive); with MOLT-4, > 100 µM (inactive); with HCT-15, more than 100 µM. For the same molecule, the GI50 with SF-295, in the test with OVCAR-4, in the test on OVCAR-5, with HT-29, with HOP-92 and in the test with MDA-MB-231 was > 100 µM (inactive) throughout. For the same molecule, in the test with K562, the GI50 is > 100 µM (inactive).

As for `C=CCOc1ccc(C(=N/NC(=O)c2ccccc2)/N=N/c2ccc([N+](=O)[O-])cc2)cc1OC`, the GI50 in the test on DU-145 was 77.4 µM (inactive); in the test with HCC 2998, 74.1 µM (inactive); in the test on UACC-257, > 100 µM (inactive); with MDA-N, > 100 µM (inactive); in the test with UACC-62, > 100 µM (inactive); with NCI-H23 it was > 100 µM (inactive). Moreover, the GI50 in the test with Hs-578T was > 100 µM (inactive); with COLO 205 it was > 100 µM (inactive); with SNB-75, > 100 µM (inactive); with PC-3, > 100 µM (inactive); in the test with NCI/ADR-RES it was > 100 µM (inactive); with MOLT-4 it was 92.5 µM (inactive). Moreover, the GI50 with HCT-15 is more than 100 µM; in the test with SF-295, > 100 µM (inactive); in the test on OVCAR-4 it was > 100 µM (inactive); with OVCAR-5 it was > 100 µM (inactive); with HT-29, > 100 µM (inactive); in the test with HOP-92, 18.6 µM (inactive). The GI50 in the test with MDA-MB-231 is > 100 µM (inactive).

With `O=C(O)C1Cc2c([nH]c3ccccc23)C(CCCCO)N1` (stereo not drawn), the GI50 with DU-145, in the test on UACC-257, in the test on MDA-N, in the test on UACC-62, in the test with NCI-H23 and in the test with Hs-578T was > 100 µM (inactive) each time. For the same molecule, the GI50 with COLO 205 was > 100 µM (inactive); in the test with PC-3, > 100 µM (inactive); in the test with NCI/ADR-RES, > 100 µM (inactive); with MOLT-4 it was > 100 µM (inactive); in the test on HCT-15, more than 100 µM; in the test on SF-295, > 100 µM (inactive). The GI50 with OVCAR-4, in the test with OVCAR-5, with HT-29, with HOP-92, in the test on MDA-MB-231 and with K562 was > 100 µM (inactive) throughout.

As for `CC(C)=CCN=C(N)N`, the GI50 with DU-145, in the test on HCC 2998, in the test on UACC-257, with MDA-N, in the test on UACC-62 and in the test with NCI-H23 was > 100 µM (inactive) each time. In addition, the GI50 with Hs-578T is > 100 µM (inactive); with COLO 205 it was > 100 µM (inactive); with PC-3, > 100 µM (inactive); in the test on NCI/ADR-RES, > 100 µM (inactive); in the test on MOLT-4 it was 51.2 µM (inactive); in the test with HCT-15, more than 100 µM. Further, the GI50 with SF-295, in the test on OVCAR-4, in the test with HT-29, with HOP-92 and in the test with MDA-MB-231 was > 100 µM (inactive) throughout.

Turning to `CC(=O)N1C(OCc2ccccc2)CCN1c1ccccc1` (stereo not drawn), the GI50 in the test on DU-145, with UACC-257, in the test on MDA-N, in the test on NCI-H23, in the test with Hs-578T and in the test with COLO 205 was > 10 µM (inactive) each time. For the same molecule, the GI50 with SNB-75 was > 10 µM (inactive); with PC-3, > 10 µM (inactive); in the test on NCI/ADR-RES, > 10 µM (inactive); with MOLT-4 it was > 10 µM (inactive); with HCT-15, more than 10 µM; in the test on SF-295, > 10 µM (inactive). In addition, the GI50 in the test with OVCAR-4 was > 10 µM (inactive); in the test on OVCAR-5 it was > 10 µM (inactive); with HT-29, > 10 µM (inactive); with HOP-92, 3.29 µM (inactive); in the test on MDA-MB-231 it was > 10 µM (inactive); in the test with K562 it was > 10 µM (inactive).

`COc1ccc(-c2[nH]c(-c3ccc(OC)cc3)c(-c3ccccn3)c2-c2ccccn2)cc1`: the GI50 in the test on DU-145 is > 100 µM (inactive); with HCC 2998, 13.6 µM (inactive); with UACC-257, 40.2 µM (inactive); with MDA-N it was > 100 µM (inactive); in the test with UACC-62 it was 34.3 µM (inactive); in the test with NCI-H23, 42.5 µM (inactive). The GI50 with Hs-578T is > 100 µM (inactive); with COLO 205 it was 26 µM (inactive); with SNB-75, 31.2 µM (inactive); with PC-3, 44 µM (inactive); with NCI/ADR-RES, 39.5 µM (inactive); in the test with MOLT-4, 34.7 µM (inactive). In addition, the GI50 with HCT-15 is 26.1 µM; in the test on SF-295 it was 38.2 µM (inactive); in the test on OVCAR-5 it was > 100 µM (inactive); in the test on HT-29, 21.6 µM (inactive); in the test on HOP-92 it was > 100 µM (inactive); in the test on MDA-MB-231 it was 89.3 µM (inactive). Also, the GI50 in the test with K562 is 25.5 µM (inactive).

Turning to `CC(=O)OCC1OC(Nc2ccc3nc(C)n(-c4cccc(C)c4)c(=O)c3c2)C(OC(C)=O)C(OC(C)=O)C1OC(C)=O` (stereo not drawn), the GI50 with DU-145, in the test with HCC 2998, in the test on UACC-257, with MDA-N, with UACC-62 and in the test with NCI-H23 was > 62.5 µM (inactive) each time. In addition, the GI50 with Hs-578T, in the test with COLO 205, in the test on SNB-75, with PC-3, in the test with NCI/ADR-RES and in the test on MOLT-4 was > 62.5 µM (inactive) throughout. Further, the GI50 was more than 62.5 µM in the test on HCT-15; > 62.5 µM (inactive) with SF-295; > 62.5 µM (inactive) in the test with OVCAR-4; > 62.5 µM (inactive) in the test with OVCAR-5; > 62.5 µM (inactive) in the test with HT-29; > 62.5 µM (inactive) in the test on MDA-MB-231. In the test on K562, the GI50 was > 62.5 µM (inactive).

Consider `C[C@]12CCC(=O)O[C@H]1CCCCO2`, for which the GI50 with DU-145, in the test on HCC 2998, in the test on UACC-257, in the test on MDA-N, in the test on UACC-62 and in the test with Hs-578T was > 100 µM (inactive) in each case. The GI50 is > 100 µM (inactive) in the test on COLO 205; 87.5 µM (inactive) in the test with SNB-75; > 100 µM (inactive) with PC-3; > 100 µM (inactive) with NCI/ADR-RES; > 100 µM (inactive) in the test with MOLT-4; more than 100 µM in the test on HCT-15. In addition, the GI50 with SF-295 is > 100 µM (inactive); in the test on OVCAR-5, > 100 µM (inactive); in the test on HT-29, > 100 µM (inactive); in the test on HOP-92, 28.1 µM (inactive); in the test on MDA-MB-231, > 100 µM (inactive); in the test on K562, > 100 µM (inactive).
